The pEC50 is −log10 of the EC50, conventionally taken in molar units.

A short description of data set [1]: Plasma levels in SU-DHL-10 xenograft study. Type of data set: in vivo, mouse. As to the method:
On the 16th day post-tumor implantation, animals with established tumors (n=9 animals per group) were treated for 3 days by oral gavage with either vehicle or Entospletinib at 75 mg/kg or 25 mg/kg twice daily (BID). […] This dose level is designated 75/50 mg/kg.
Efficacy was evaluated by tumor volume measurements. Plasma levels of Entospletinib and vincristine were evaluated on the third day of dosing Entospletinib (Day 19) and the last day of dosing (Day 32). Tolerability was evaluated by daily observations, body weight (3 times per week) and circulating blood cell counts at the end of the study.

The subject of data set [2] is 10 diffuse large B-cell lymphoma (DLBCL), 4 multiple myeloma (MM), 2 follicular lymphoma (FL), and 1 mantle cell lymphoma (MCL) cell lines. The data set is described as follows: Cell Titer Glo viability assay, summary over all cell lines tested. It counts as cell-based. The following applies: at concentrations <3000 nM. As to the method: All procedures were performed at Gilead Sciences, Inc. in Branford, The compound of formula (I), cyclophosphamide, doxorubicin and vincristine sulfate were dissolved in DMSO to prepare stock solutions that were serially diluted three-fold in DMSO in a 96 well plate format at 1000× so the final starting assay concentrations tested would be 10 μM, 200 μM, 10 μM, and 1 μM respectively, for each compound. Compound plates were diluted 1:100 in RPMI without serum or additives creating a 10× stock. Cells were seeded into a 96-well plate at 10,000-20,000 cells per well in 100 μl of growth media appropriate to the cell line supplemented with 100 U/L penicillin-streptomycin. OCI-Ly3, OCI-Ly4 and OCI-Ly7 were grown in Iscove's+20% FBS, OCI-Ly19 was grown in alphaMEM+20% FBS, and all other cell lines were grown in RPMI+10% FBS. To each well, 11 μl of 10× compound was added in a final concentration of 0.1% DMSO and cells were incubated at 37° C. in 5% CO2 for 72 hours. Cell viability was assessed with Cell Titer Glo (Promega, Madison, Wis.) following the manufacturer's protocol on an Envision plate reader (Perkin Elmer, Waltham, Mass.). EC50 values were determined using a four parameter variable slope model with GraphPad Prism 6.0 software. All EC50 values represent mean values of from duplicate dose response curves.
For orientation: ATP-based viability assays read luminescence as a measure of living cells.

For data set [3] the following is noted: cited from earlier work.
For data set [4], the system named is DHL-10. The data set is described as follows: Cell Titer Glo viability assay, DHL-10, alone or with compound of Formula I (Example 3). On the procedure: All procedures were performed at Gilead Sciences, Inc. in Branford, Conn. […] Compound plates were diluted 1:100 in RPMI without serum or additives but containing either 1% DMSO or 3 μM of the compound of Formula I creating a 10× stock. The DLBCL cell line, DHL-10 was plated at 10,000 cells per well in RPMI supplemented with 10% FBS and 100 U/L penicillin-streptomycin. To each well containing cells, 11 μl of 10× compound mixture in serum-free media was added in a final concentration of 0.2% DMSO and cells were incubated at 37° C. in 5% CO2 for 72 hours. Cell viability was assessed using Cell Titer Glo (CTG, Promega, Madison, Wis.) following the manufacturer's protocol on an Envision plate reader (Perkin Elmer, Waltham, Mass.). CTG signals were recorded for individual compound treatments and combinations. EC50 values were determined using a four parameter variable slope model with GraphPad Prism 6.0 software.

pEC50: −log10 of the molar value. Read-outs that look alike come from different tables or passages of the source.

Consider `c1cn2cc(-c3ccc4cn[nH]c4c3)nc(Nc3ccc(N4CCOCC4)cc3)c2n1` [Compound of Formula I, 6-(1H-indazol-6-yl)-N-(4-morpholinophenyl)imidazo[1,2-a]pyrazin-8-amine], for which the “plasma concentrations on the third day of dosing” value in data set [1] (75 mg/kg BID) was “higher than planned plasma concentrations”. Besides, in data set [1] (25 and 50 mg/kg BID, respectively, compared with mouse whole blood values for inhibition of SYK), the “plasma concentrations at the end of study at Cmin (trough)” value was “exceed the in vitro pervanadate-stimulated mouse whole blood EC50 and EC50 values for inhibition of SYK”. Besides, the “inhibition of cell viability in any of the cell lines tested” value in data set [2] is listed as “did not show inhibition cell viability”.
For the compound `CC[C@]1(O)C[C@H]2CN(CCc3c([nH]c4ccccc34)[C@@](C(=O)OC)(c3cc4c(cc3OC)N(C=O)[C@H]3[C@@](O)(C(=O)OC)[C@H](OC(C)=O)[C@]5(CC)C=CCN6CC[C@]43[C@@H]65)C2)C1` [Vincristine, vincristine], the solubility entry is “only slightly soluble” in data set [3] (95% ethanol), “soluble” in data set [3] (methanol) and “freely soluble” in data set [3] (water). For the same compound, the pEC50 in data set [4] (Homo sapiens, 72 h, read-out: Inhibition of cell viability EC50, No Compound of Formula I) was 7.85; in data set [4] (read-out: Inhibition of cell viability EC50, +300 nM Compound of Formula I, DHL-10, in combination with 300 nM compound of Formula I, 72 hours), 8.46.

Values taken from patent US10080756B2, “Combination methods for treating cancers” (Gilead Sciences, Inc., priority 2014, dated 2018).
